Measured values from patent US10239856B2, “Synthesis of resorcylic acid lactones useful as therapeutic agents” (UNIVERSITY DE STRASBOURG, priority 2008, dated 2019).
Like-named read-outs stand apart in the source and are kept apart here.

Tests used:
HSP90α = HSP90α (Homo sapiens, UniProt P07900); test: Affinity to HSP90α; type: binding
Her-2 (HSP90 client) = Her-2 (HSP90 client) degradation (client depletion); type: cell-based
Protocol: A number of the compounds of the invention were tested for affinity to HSP90α (see Kim et al., J. Biomol. Screen., 2004, 9, 375), Her-2 (HSP90 client) degradation (see Xu et al., J. Biol. Chem., 2001, 276, 3702), and cytotoxicity against SKBr3 and HCC1954, two breast cancer cell lines which over express Her-2.

SKBr3 = test: Cytotoxicity against SKBr3 breast cancer cells; type: cell-based; details: Homo sapiens, SK-BR-3, first value of cell
Protocol: (§1) Compounds of the invention were assayed for cytotoxicity in HCC1954 and SK-BR-3 tumor cells.

HCC1954 = test: Cytotoxicity against HCC1954 breast cancer cells; type: cell-based; details: Homo sapiens, second value of cell
Protocol: as §1

[1] = Her-2 degradation; read-out: Client Depletion
[2] = read-out: Client Depletion; Her-2 degradation

| IC50 (HSP90α; read-out: HSP90 affinity) [nM] | IC50 (Her-2 (HSP90 client); [1]) [nM] | IC50 (HSP90α; HSP90 affinity) [nM] | IC50 (Her-2 (HSP90 client); [2]) [nM] | Structure (SMILES) | IC50 (SKBr3) [nM] | IC50 (HCC1954) [nM] |
| --- | --- | --- | --- | --- | --- | --- |
| 220 | > 10000 |  |  | O=C1OCC/C=C/CC/C=C/C(=NOCC(=O)N2CCOCC2)Cc2c(Cl)c(O)cc(O)c21 [13d] | > 10000 | > 10000 |
| > 10000 | > 10000 |  |  | O=C1OCC/C=C/CC/C=C/C(=NOCC(=O)N2CCNCC2)Cc2c(Cl)c(O)cc(O)c21 [13e] | > 10000 | > 10000 |
| 68 | 2400 |  |  | COC1CC/C=C/CCOC(=O)c2c(O)cc(O)c(Cl)c2C/C(=N\OCC(=O)N2CCCCC2)C1 (stereo not shown) [13f] | 1300 | 2800 |
| 81 |  |  |  | O=C1OCC/C=C/CCCCC(=NOCC(=O)N2CCCCC2)Cc2c(Cl)c(O)cc(O)c21 [13g] |  |  |
| 390 | 7700 |  |  | O=C(CON=C1/C=C/CC/C=C/CCOC(=O)c2c(O)cc(O)c(Cl)c2C1)NCCO [13h] | 7500 | > 10000 |
| 1200 |  |  |  | CNC(=O)CON=C1/C=C/CC/C=C/CCOC(=O)c2c(O)cc(O)c(Cl)c2C1 [13i] | > 10000 | > 10000 |
| 110 | 5500 |  |  | O=C(CON=C1/C=C/CC/C=C/CCOC(=O)c2c(O)cc(O)c(Cl)c2C1)NCc1ccccc1 [13j] | 3500 | 8500 |
| 90 | 250 |  |  | O=C(CON=C1/C=C/CC/C=C/CCOC(=O)c2c(O)cc(O)c(Cl)c2C1)NC1CCCCC1 [13k] | 550 | 450 |
| 190 | 6500 |  |  | COC(=O)CON=C1/C=C/CC/C=C/CCOC(=O)c2c(O)cc(O)c(Cl)c2C1 [13l] | > 10000 | > 10000 |
| > 10000 | > 10000 |  |  | C=CCC/C=C/C(Cc1c(Cl)c(O)cc(O)c1C(=O)OCCC=C)=NOCC(=O)N1CCCCC1 [13m] | > 10000 | > 10000 |
| < 52 |  |  |  | C/C1=C\C(=NOCC(=O)N2CCCCC2)Cc2cc(O)cc(O)c2C(=O)O[C@H](C)C/C=C/CC1 [compound 336] |  |  |
|  |  | 46 | 105 | C/C1=C\C(=NOCC(=O)N2CCCCC2)Cc2cc(O)cc(O)c2C(=O)OCC/C=C/CC1 [compound 349] |  |  |
|  |  | 196 | 805 | CCCC1C/C=C/CC/C(C)=C/C(=NOCC(=O)N2CCCCC2)Cc2cc(O)cc(O)c2C(=O)O1 (stereo not shown) [compound 350] |  |  |
|  |  | 204 | 900 | CCN(CC)C(=O)CON=C1/C=C(\C)CC/C=C/C[C@@H](C)OC(=O)c2c(O)cc(O)cc2C1 [compound 351] |  |  |
| 3030 | > 10000 |  |  | O=C1OC/C=C/CCCCC(=NOCC(=O)N2CCCCC2)Cc2cc(O)cc(O)c21 [compound 353] |  |  |
| 511 | 9480 |  |  | O=C1OCC/C=C/CCCCC(=NOCC(=O)N2CCCCC2)Cc2c(Cl)c(O)cc(O)c21 [compound 356] |  |  |
|  |  | 196 | 730 | CCN(CC)C(=O)CON=C1/C=C/CC/C=C/CCOC(=O)c2c(O)cc(O)cc2C1 [compound 357] |  |  |
|  |  | 587 | > 10000 | CCCC1C/C=C/CC/C=C/C(=NOCC(=O)N2CCCCC2)Cc2cc(O)cc(O)c2C(=O)O1 (stereo not shown) [compound 358] |  |  |
|  |  | 1940 | > 8800 | CCCC1C/C=C/CCCCC(=NOCC(=O)N2CCCCC2)Cc2cc(O)cc(O)c2C(=O)O1 (stereo not shown) [compound 359] |  |  |
| 543 | 2960 |  |  | CC1/C=C/CCCOC(=O)c2c(O)cc(O)cc2CC(=NOCC(=O)N2CCCCC2)/C=C/C1 (stereo not shown) [compound 361] |  |  |
|  |  | 4660 | > 10000 | CCCC1C/C=C/CC/C(C)=C/C(=NOCC(=O)N(CC)CC)Cc2cc(O)cc(O)c2C(=O)O1 (stereo not shown) [compound 362] |  |  |
|  |  | 900 | > 10000 | CCCC1C/C=C/CC/C(C)=C/C(=NOCC(=O)N(CC)CC)Cc2cc(O)cc(O)c2C(=O)O1 (stereo not shown) [compound 363] |  |  |
|  |  | 1750 | 8970 | CCCC1C/C=C/C(C)C/C=C/C(=NOCC(=O)N2CCCCC2)Cc2c(Cl)c(O)cc(O)c2C(=O)O1 (stereo not shown) [compound 365] |  |  |
|  |  | 170 | 2040 | CC1/C=C/CCOC(=O)c2c(O)cc(O)c(Cl)c2CC(=NOCC(=O)N2CCCCC2)/C=C/C1 (stereo not shown) [compound 366] |  |  |
|  |  | 1720 | > 10000 | CC1/C=C/CCCOC(=O)c2c(O)cc(O)c(Cl)c2CC(=NOCC(=O)N2CCCCC2)/C=C/C1 (stereo not shown) [compound 367] |  |  |
| 599 | > 10000 |  |  | CC1/C=C/COC(=O)c2c(O)cc(O)c(Cl)c2CC(=NOCC(=O)N2CCCCC2)/C=C/C1 (stereo not shown) [compound 368] |  |  |
|  |  | 154 | 677 | CC1/C=C/C[C@@H](C)OC(=O)c2c(O)cc(O)c(Cl)c2CC(=NOCC(=O)N2CCCCC2)/C=C/C1 (stereo partly shown) [compound 369] |  |  |
|  |  | 38 | 97 | CC1/C=C/CCOC(=O)c2c(O)cc(O)cc2CC(=NOCC(=O)N2CCCCC2)/C=C/C1 (stereo not shown) [compound 370] |  |  |
|  |  | 243 | 629 | CCC1CCCCN1C(=O)CON=C1/C=C/CC/C=C/CCOC(=O)c2c(O)cc(O)cc2C1 (stereo not shown) [compound 371] |  |  |
